Consider one substance from patent US11583552B2, “Pharmaceutical formulation of arsenic trioxide” (priority 2021, dated 2023).

Where two headings read alike, the source gives them in different places.

For series [1] the following is noted: cited from earlier work.
The nature of series [2]: Inhouse trials: Arsenic Trioxide in glycerin with sodium hydroxide. It counts as physicochemical. The following applies: dissolved first in sodium hydroxide solution, then added to Glycerin.

Turning to Arsenic Trioxide, the entries for the “solubility of Arsenic Trioxide in 100 g of water” value in series [1] (0° C.), in series [1] (25° C.) and in series [1] (75° C.) were 1.2 g, 2.1 g and 5.6 g, respectively. Besides, the “solubility in alcohol, chloroform, and ether” value in series [1] is recorded as “insoluble”. Besides, the “concentrated solution of Arsenic Trioxide formed in presence of Glycerin” value in series [2] is 157400 µg/mL.
